Experimental data as given in paper PMC9629493, “Crystal structure of DNA polymerase I from Thermus phage G20c” (Acta Crystallographica. Section D, Structural Biology, 2022).

Experiments:
ExnV1 [1] = molecular target: T1, ExnV1 (uncultured virus, UniProt Z9YD31SC24); test: X-ray crystal structure, […] A; type: binding; conditions: TMP and MgCl2 added before concentration; 5 mM TMP, 10 mM MgCl2 in cryo-solution; 100 mM Bicine pH 9.3; exonuclease active site
T1 construct: full 314-residue 3'-5' exonuclease domain protein, N-terminal His6 tag (pJOE5751.1, pLEI447.1), E. coli JM109, about 36 kDa, no oligomerization

ExnV1 [2] = molecular target: T1, ExnV1; test: differential scanning fluorimetry; type: binding; conditions: with MgCl2

Structure (SMILES): Cc1cn([C@H]2C[C@H](O)[C@@H](COP(=O)(O)O)O2)c(=O)[nH]c1=O [thymidine monophosphate]
- X-ray crystal structure, 2.19 A (ExnV1 [1]): the second O atom of the phosphate group of the substrate nucleotide
- thermal stabilization (ExnV1 [2]): Differential scanning fluorimetry showed that ExnV1 was stabilized by thymidine monophosphate (TMP) and MgCl2
